Data on 26 compounds can be found in patent publication US10112941B2, “Tricyclic compounds as anticancer agents” (BRISTOL-MYERS SQUIBB COMPANY, priority 2013, dated 2018).

The experiment deals with BRD4 (Homo sapiens, UniProt O60885). The experiment in a line: Time Resolved Fluorescence Resonance Energy Transfer (TR-FRET) binding assay, BRD4. Particulars: one of the FRET assays described; read-out: FRET BRD4 IC50.

As for `Cc1noc(C)c1-c1cnc2c3ccc(C(C)(C)O)cc3n(C(c3ccccc3F)C3CCOCC3)c2c1` (single isomer, unassigned) [Example 149, 2-[3-(Dimethyl-1,2-oxazol-4-yl)-5-[(2-fluorophenyl)(oxan-4-yl)methyl]-5H-pyrido[3,2-b]indol-7-yl]propan-2-ol], the IC50 is under 5 nM.

Regarding `Cc1noc(C)c1-c1cnc2c3ccc(C(C)(C)O)cc3n(C(c3ccccc3F)C3CCOCC3)c2c1` (single isomer, unassigned) [Example 150, 2-[3-(Dimethyl-1,2-oxazol-4-yl)-5-[(2-fluorophenyl)(oxan-4-yl)methyl]-5H-pyrido[3,2-b]indol-7-yl]propan-2-ol], the IC50 is under 5 nM.

Consider `Cc1noc(C)c1-c1cnc2c3ccc(S(C)(=O)=O)cc3n(C(c3ccccc3)C3CCC(F)(F)CC3)c2c1` (single isomer, unassigned) [Example 154, 4-{5-[(4,4-Difluorocyclohexyl)(phenyl)methyl]-7-methanesulfonyl-5H-pyrido[3,2-b]indol-3-yl}-3,5-dimethyl-1,2-oxazole], for which the IC50 is under 25 nM.

As for `Cc1noc(C)c1-c1cnc2c3ccc(S(C)(=O)=O)cc3n(C(c3ccccc3)C3CCC(F)(F)CC3)c2c1` (single isomer, unassigned) [Example 155, 4-{5-[(4,4-Difluorocyclohexyl)(phenyl)methyl]-7-methanesulfonyl-5H-pyrido[3,2-b]indol-3-yl}-3,5-dimethyl-1,2-oxazole], the IC50 was under 25 nM.

With `Cc1nnn(C)c1-c1cnc2c3ccc(S(C)(=O)=O)cc3n(C(c3ccccc3)C3CCC(F)(F)CC3)c2c1` (single isomer, unassigned) [Example 156, 5-{5-[(4,4-Difluorocyclohexyl)(phenyl)methyl]-7-methanesulfonyl-5H-pyrido[3,2-b]indol-3-yl}-1,4-dimethyl-1H-1,2,3-triazole], the half-maximal inhibitory concentration (IC50) was under 5 nM.

In the case of `Cc1nnn(C)c1-c1cnc2c3ccc(S(C)(=O)=O)cc3n(C(c3ccccc3)C3CCC(F)(F)CC3)c2c1` (single isomer, unassigned) [Example 157, 5-{5-[(4,4-Difluorocyclohexyl)(phenyl)methyl]-7-methanesulfonyl-5H-pyrido[3,2-b]indol-3-yl}-1,4-dimethyl-1H-1,2,3-triazole], the half-inhibitory concentration (IC50) was under 5 nM.

On to `[2H]C([2H])([2H])c1nnn(C)c1-c1cnc2c3c(S(C)(=O)=O)cc(F)c(F)c3n(C(c3ccccc3)C3CCC(F)(F)CC3)c2c1` (single isomer, unassigned) [Example 164, 5-{5-[(4,4-Difluorocyclohexyl)(phenyl)methyl]-6,7-difluoro-9-methanesulfonyl-5H-pyrido[3,2-b]indol-3-yl}-4-(^2H3)methyl-1-methyl-1H-1,2,3-triazole], for which the IC50 is under 5 nM.

As to `Cc1nnn(C)c1-c1cnc2c3ccc(C(C)(C)N)cc3n(C(c3ccccc3)C3CCOCC3)c2c1` (single isomer, unassigned) [Example 165, 2-[3-(Dimethyl-1H-1,2,3-triazol-5-yl)-5-[oxan-4-yl(phenyl)methyl]-5H-pyrido[3,2-b]indol-7-yl]propan-2-amine], the half-maximal inhibitory concentration (IC50) was under 5 nM.

On to `Cc1nnn(C)c1-c1cnc2c3ccc(C(C)(C)N)cc3n(C(c3ccccc3)C3CCOCC3)c2c1` (single isomer, unassigned) [Example 166, 2-[3-(Dimethyl-1H-1,2,3-triazol-5-yl)-5-[oxan-4-yl(phenyl)methyl]-5H-pyrido[3,2-b]indol-7-yl]propan-2-amine], for which the IC50 was under 5 nM.

Take `Cc1nnn(C)c1-c1cnc2c3ccc(C(C)(C)NC(=O)CN(C)C)cc3n(C(c3ccccc3)C3CCOCC3)c2c1` (single isomer, unassigned) [Example 167, N-{2-[3-(Dimethyl-1H-1,2,3-triazol-5-yl)-5-[oxan-4-yl(phenyl)methyl]-5H-pyrido[3,2-b]indol-7-yl]propan-2-yl}-2-(dimethylamino)acetamide]: the IC50 was under 5 nM.

In the case of `Cc1nnn(C)c1-c1cnc2c3ccc(C(C)(C)NC(=O)CN(C)C)cc3n(C(c3ccccc3)C3CCOCC3)c2c1` (single isomer, unassigned) [Example 168, N-{2-[3-(Dimethyl-1H-1,2,3-triazol-5-yl)-5-[oxan-4-yl(phenyl)methyl]-5H-pyrido[3,2-b]indol-7-yl]propan-2-yl}-2-(dimethylamino)acetamide], the concentration for half-maximal inhibition (IC50) is under 5 nM.

As for `Cc1sc(=O)n(C)c1-c1cnc2c3ccc(C(C)(C)O)cc3n(C(c3ccccc3)C3CCOCC3)c2c1` (single isomer, unassigned) [Example 169, 4-[7-(2-Hydroxypropan-2-yl)-5-[oxan-4-yl(phenyl)methyl]-5H-pyrido[3,2-b]indol-3-yl]-3,5-dimethyl-2,3-dihydro-1,3-thiazol-2-one], the concentration for half-maximal inhibition (IC50) was under 5 nM.

`Cc1sc(=O)n(C)c1-c1cnc2c3ccc(C(C)(C)O)cc3n(C(c3ccccc3)C3CCOCC3)c2c1` (single isomer, unassigned) [Example 170, 4-[7-(2-Hydroxypropan-2-yl)-5-[oxan-4-yl(phenyl)methyl]-5H-pyrido[3,2-b]indol-3-yl]-3,5-dimethyl-2,3-dihydro-1,3-thiazol-2-one]: the IC50 was under 1500 nM.

For `[2H]C([2H])([2H])c1nnn(C)c1-c1cnc2c3c(F)cc(S(C)(=O)=O)cc3n(C(c3ccccc3)C3CCC(F)(F)CC3)c2c1` (single isomer, unassigned) [Example 199, 5-{5-[(4,4-Difluorocyclohexyl)(phenyl)methyl]-9-fluoro-7-methanesulfonyl-5H-pyrido[3,2-b]indol-3-yl}-4-(^2H3)methyl-1-methyl-1H-1,2,3-triazole], the IC50 is under 5 nM.

As to `[2H]C([2H])([2H])c1nnn(C)c1-c1cnc2c3c(F)cc(S(C)(=O)=O)cc3n(C(c3ccccc3)C3CCC(F)(F)CC3)c2c1` (single isomer, unassigned) [Example 200, 5-{5-[(4,4-Difluorocyclohexyl)(phenyl)methyl]-9-fluoro-7-methanesulfonyl-5H-pyrido[3,2-b]indol-3-yl}-4-(^2H3)methyl-1-methyl-1H-1,2,3-triazole], the IC50 is under 5 nM.

With `Cc1nnn(C)c1-c1cnc2c3ccc(C(C)(C)O)cc3n(C(c3ccccc3)C3CCC(F)(F)CC3)c2c1` (single isomer, unassigned) [Example 205], the half-inhibitory concentration (IC50) was under 5 nM.

Regarding `Cc1nnn(C)c1-c1cnc2c3ccc(C(C)(C)O)cc3n(C(c3ccccc3)C3CCC(F)(F)CC3)c2c1` (single isomer, unassigned) [Example 206], the IC50 was under 5 nM.

Consider `[2H]C([2H])([2H])c1nnn(C)c1-c1cnc2c3c(OC)cc(S(C)(=O)=O)cc3n(C(c3ncccc3F)C3CCC(F)(F)CC3)c2c1` (single isomer, unassigned) [Example 213, 2-[(4,4-Difluorocyclohexyl)({7-methanesulfonyl-9-methoxy-3-[4-(^2H3)methyl-1-methyl-1H-1,2,3-triazol-5-yl]-5H-pyrido[3,2-b]indol-5-yl})methyl]-3-fluoropyridine], for which the IC50 is under 5 nM.

For the compound `[2H]C([2H])([2H])c1nnn(C)c1-c1cnc2c3c(OC)cc(S(C)(=O)=O)cc3n(C(c3ncccc3F)C3CCC(F)(F)CC3)c2c1` (single isomer, unassigned) [Example 214, 2-[(4,4-Difluorocyclohexyl)({7-methanesulfonyl-9-methoxy-3-[4-(^2H3)methyl-1-methyl-1H-1,2,3-triazol-5-yl]-5H-pyrido[3,2-b]indol-5-yl})methyl]-3-fluoropyridine], the concentration for half-maximal inhibition (IC50) is under 5 nM.

`COc1ccc(C(C2CCOCC2)n2c3cc(C(C)(C)O)ccc3c3ncc(-c4c(C)nnn4C)cc32)cc1` (single isomer, unassigned) [Example 249, 2-[3-(Dimethyl-1H-1,2,3-triazol-5-yl)-5-[(4-methoxyphenyl)(oxan-4-yl)methyl]-5H-pyrido[3,2-b]indol-7-yl]propan-2-ol]: the IC50 was under 5 nM.

For the compound `COc1ccc(C(C2CCOCC2)n2c3cc(C(C)(C)O)ccc3c3ncc(-c4c(C)nnn4C)cc32)cc1` (single isomer, unassigned) [Example 250, 2-[3-(Dimethyl-1H-1,2,3-triazol-5-yl)-5-[(4-methoxyphenyl)(oxan-4-yl)methyl]-5H-pyrido[3,2-b]indol-7-yl]propan-2-ol], the IC50 was under 25 nM.

`Cc1nnn(C)c1-c1cnc2c3ccc(C(C)(C)O)cc3n(C(c3ccc(F)cc3)C3CCC3)c2c1` (single isomer, unassigned) [Example 251, 2-{5-[Cyclobutyl(4-fluorophenyl)methyl]-3-(dimethyl-1H-1,2,3-triazol-5-yl)-5H-pyrido[3,2-b]indol-7-yl}propan-2-ol]: the IC50 was under 5 nM.

On to `Cc1nnn(C)c1-c1cnc2c3ccc(C(C)(C)O)cc3n(C(CCC(F)(F)F)c3ccccn3)c2c1` (single isomer, unassigned) [Example 253, 2-[3-(Dimethyl-1H-1,2,3-triazol-5-yl)-5-[4,4,4-trifluoro-1-(pyridin-2-yl)butyl]-5H-pyrido[3,2-b]indol-7-yl]propan-2-ol], for which the IC50 was under 5 nM.

Take `Cc1nnn(C)c1-c1cnc2c3ccc(C(C)(C)O)cc3n(C(CCC(F)(F)F)c3ccccn3)c2c1` (single isomer, unassigned) [Example 254, 2-[3-(Dimethyl-1H-1,2,3-triazol-5-yl)-5-[4,4,4-trifluoro-1-(pyridin-2-yl)butyl]-5H-pyrido[3,2-b]indol-7-yl]propan-2-ol]: the IC50 is under 5 nM.

As to `Cc1nnn(C)c1-c1cnc2c3c(S(C)(=O)=O)cccc3n(C(CCC(F)(F)F)c3ccccn3)c2c1` (single isomer, unassigned) [Example 258, 2-{1-[3-(Dimethyl-1H-1,2,3-triazol-5-yl)-9-methanesulfonyl-5H-pyrido[3,2-b]indol-5-yl]-4,4,4-trifluorobutyl}pyridine], the IC50 is under 5 nM.

Turning to `Cc1cc(C(C2CCOCC2)n2c3cc(C(C)(C)O)ccc3c3ncc(-c4c(C)nnn4C)cc32)no1` (single isomer, unassigned) [Example 286, 2-[3-(Dimethyl-1H-1,2,3-triazol-5-yl)-5-[(5-methyl-1,2-oxazol-3-yl)(oxan-4-yl)methyl]-5H-pyrido[3,2-b]indol-7-yl]propan-2-ol], the IC50 was under 5 nM.
